Results published in ChEMBL document CHEMBL1201862, “PubChem BioAssay data set” (2004).
Activity calls are given as the source filed them.

Tests used:
[1] = cells; format: functional, cell-based
[2] = target: ADP-ribosylation factor GTPase-activating protein 1 (Rattus norvegicus, UniProt Q62848); experiment: Fluorescence polarization-based biochemical high throughput dose response screening assay to identify inhibitors of ADP-ribosylation factor GTPase activating protein 1 (ARFGAP1).; format: functional
[3] = target: Arf-GAP with SH3 domain, ANK repeat and PH domain-containing protein 1 (Homo sapiens, UniProt Q9ULH1); format: functional;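 also: biochemical fluorescence polarization dose–response screen measuring inhibition of ASAP1; ASAP1 GAP domain stimulating GTP hydrolysis by truncated human ARF1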
[4] = cells; format: functional, cell-based; remark: listed apart in the source
[5] = growth suppression of PTEN-null colon cells, dose response, cell-based, HCT116 PTEN knockout (AID 1047); format: functional;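 also: HCT116 colon tumor cells with PTEN knocked out; cells exposed to compound for 60 hours before readout; potency for loss of cell viability measured by luminescence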
[6] = target: 26S proteasome non-ATPase regulatory subunit 14 (Homo sapiens, UniProt O00487); experiment: inhibition of proteasome subunit RPN11 – biochemical, fluorescence polarization, uHTS hits, confirmation (AID 602368); format: functional
[7] = target: Prothrombin (Bos taurus, UniProt P00735); experiment: thrombin inhibition, dose response, biochemical, fluorescence polarization, uHTS hits (AID 602369); format: functional
[8] = growth suppression of beta-catenin-knockout colon cells, dose response, cell-based, HCT116, human colon tumor (AID 1045); format: functional;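 also: HCT116 colon tumor cells with beta catenin knocked out; cells exposed to compound for 60 hours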
[9] = target: 72 kDa type IV collagenase (Homo sapiens, UniProt P08253); experiment: Dose Response validation of uHTS RPN11 inhibitor hits using a MMP-2 Fluorescence assay.; format: functional
[10] = tested on: HEK293; experiment: cells; format: functional, cell-based; details: Homo sapiens
[11] = cytotoxicity toward NIH3T3 fibroblasts, dose response, counter-screen, cell-based, ATP luminescence, mouse fibroblasts (AID 2010); format: functional;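 also: cells exposed to compound for about 90 hours before reading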
[12] = tested on: HEK293; experiment: NOD1 signaling inhibitors, primary screen, cell-based, luminescence, uHTS (AID 1578); format: functional; details: Homo sapiens
[13] = target: T1, Methionyl-tRNA synthetase, putative (Trypanosoma brucei brucei, UniProt Q38C91); format: functional, Trypanosoma brucei brucei strain 927/4 GUTat10.1
T1 sequence (Q38C91 whole entry): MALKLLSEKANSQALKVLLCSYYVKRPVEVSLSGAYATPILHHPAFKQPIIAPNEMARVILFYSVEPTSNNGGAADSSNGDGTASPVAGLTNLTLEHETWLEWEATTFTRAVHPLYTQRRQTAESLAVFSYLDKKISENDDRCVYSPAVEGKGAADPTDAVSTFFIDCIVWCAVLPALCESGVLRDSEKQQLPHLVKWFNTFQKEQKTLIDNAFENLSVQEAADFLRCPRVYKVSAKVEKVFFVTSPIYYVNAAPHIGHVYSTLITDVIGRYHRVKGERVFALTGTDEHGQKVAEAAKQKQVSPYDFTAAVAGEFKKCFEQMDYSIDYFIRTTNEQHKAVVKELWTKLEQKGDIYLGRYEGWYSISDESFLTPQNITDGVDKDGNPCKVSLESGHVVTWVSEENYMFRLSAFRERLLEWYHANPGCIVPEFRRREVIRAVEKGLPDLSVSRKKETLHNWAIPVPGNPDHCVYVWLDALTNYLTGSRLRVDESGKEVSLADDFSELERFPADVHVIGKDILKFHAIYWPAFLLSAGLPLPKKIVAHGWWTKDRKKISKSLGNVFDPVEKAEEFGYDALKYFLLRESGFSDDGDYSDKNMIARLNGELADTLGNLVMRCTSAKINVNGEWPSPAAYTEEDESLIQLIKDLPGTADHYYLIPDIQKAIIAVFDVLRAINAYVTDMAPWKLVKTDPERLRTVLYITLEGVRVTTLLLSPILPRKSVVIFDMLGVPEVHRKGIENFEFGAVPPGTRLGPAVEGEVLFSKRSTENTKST

[14] = Counterscreen for inhibitors of Trypanosoma brucei methionyl tRNA synthetase (MetRS): Luminescence-based cell-based high throughput dose response assay to identify compounds that are cytotoxic to Jurkat human T lymphocyte cells.; format: functional
[15] = target: T1, Methionyl-tRNA synthetase, putative; format: functional, Trypanosoma brucei brucei strain 927/4 GUTat10.1; remark: listed apart in the source
[16] = tested on: HEK293; experiment: NOD2 signaling inhibitors in MDP-stimulated cells, cell-based, uHTS, luminescence (AID 2001); format: functional; details: Homo sapiens
[17] = inhibitors of intracellular T. cruzi replication, confirmation, NIH3T3 host cells, beta-gal luminescence (AID 2044); format: functional, cell-based;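 also: intracellular parasites grown in NIH/3T3 mouse fibroblasts as host cells; luminescent beta-galactosidase reporter signal from transgenic T. cruzi replicating inside host cells; inhibitors lower the luminescence signal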
[18] = tested on: HEK293; experiment: cells; format: functional, cell-based; details: Homo sapiens; remark: listed apart in the source
[19] = target: Beta-galactosidase (Escherichia coli, UniProt Q8VNN2); experiment: Dose response counterscreen for EBI2 assay utilizing the enzyme, b-galactosidase.; format: functional
Beta-galactosidase, sequence (Q8VNN2 whole entry): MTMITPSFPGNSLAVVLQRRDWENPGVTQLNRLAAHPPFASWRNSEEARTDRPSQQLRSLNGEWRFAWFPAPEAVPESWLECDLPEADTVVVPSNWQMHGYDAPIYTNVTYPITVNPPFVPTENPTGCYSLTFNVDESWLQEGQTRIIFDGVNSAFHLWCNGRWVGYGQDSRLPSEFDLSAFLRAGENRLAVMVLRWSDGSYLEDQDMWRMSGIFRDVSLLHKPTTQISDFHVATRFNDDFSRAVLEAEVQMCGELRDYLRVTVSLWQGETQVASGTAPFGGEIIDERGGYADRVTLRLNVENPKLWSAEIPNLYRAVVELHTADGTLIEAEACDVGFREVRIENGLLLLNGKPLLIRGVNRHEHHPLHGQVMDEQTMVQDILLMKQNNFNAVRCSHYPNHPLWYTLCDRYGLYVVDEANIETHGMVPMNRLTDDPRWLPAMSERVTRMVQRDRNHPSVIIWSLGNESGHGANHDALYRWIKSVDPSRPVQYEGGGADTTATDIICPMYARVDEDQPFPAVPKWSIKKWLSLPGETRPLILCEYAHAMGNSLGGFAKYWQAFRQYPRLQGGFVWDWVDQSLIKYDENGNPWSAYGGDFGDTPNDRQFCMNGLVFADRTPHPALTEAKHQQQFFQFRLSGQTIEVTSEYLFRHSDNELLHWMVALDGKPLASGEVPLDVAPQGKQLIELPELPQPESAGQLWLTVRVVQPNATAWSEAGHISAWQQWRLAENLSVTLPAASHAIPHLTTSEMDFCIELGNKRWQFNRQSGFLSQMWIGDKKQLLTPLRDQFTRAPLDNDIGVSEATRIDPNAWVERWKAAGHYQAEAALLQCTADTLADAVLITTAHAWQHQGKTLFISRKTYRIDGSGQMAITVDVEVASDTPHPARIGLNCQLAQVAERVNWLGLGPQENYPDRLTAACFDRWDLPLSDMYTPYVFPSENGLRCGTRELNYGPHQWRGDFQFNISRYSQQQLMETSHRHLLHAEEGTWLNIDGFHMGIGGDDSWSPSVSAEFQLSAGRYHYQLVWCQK

Arf-GAP with SH3 domain, ANK repeat and PH domain-containing protein 1, sequence (Q9ULH1 whole entry, the tested form may be a part): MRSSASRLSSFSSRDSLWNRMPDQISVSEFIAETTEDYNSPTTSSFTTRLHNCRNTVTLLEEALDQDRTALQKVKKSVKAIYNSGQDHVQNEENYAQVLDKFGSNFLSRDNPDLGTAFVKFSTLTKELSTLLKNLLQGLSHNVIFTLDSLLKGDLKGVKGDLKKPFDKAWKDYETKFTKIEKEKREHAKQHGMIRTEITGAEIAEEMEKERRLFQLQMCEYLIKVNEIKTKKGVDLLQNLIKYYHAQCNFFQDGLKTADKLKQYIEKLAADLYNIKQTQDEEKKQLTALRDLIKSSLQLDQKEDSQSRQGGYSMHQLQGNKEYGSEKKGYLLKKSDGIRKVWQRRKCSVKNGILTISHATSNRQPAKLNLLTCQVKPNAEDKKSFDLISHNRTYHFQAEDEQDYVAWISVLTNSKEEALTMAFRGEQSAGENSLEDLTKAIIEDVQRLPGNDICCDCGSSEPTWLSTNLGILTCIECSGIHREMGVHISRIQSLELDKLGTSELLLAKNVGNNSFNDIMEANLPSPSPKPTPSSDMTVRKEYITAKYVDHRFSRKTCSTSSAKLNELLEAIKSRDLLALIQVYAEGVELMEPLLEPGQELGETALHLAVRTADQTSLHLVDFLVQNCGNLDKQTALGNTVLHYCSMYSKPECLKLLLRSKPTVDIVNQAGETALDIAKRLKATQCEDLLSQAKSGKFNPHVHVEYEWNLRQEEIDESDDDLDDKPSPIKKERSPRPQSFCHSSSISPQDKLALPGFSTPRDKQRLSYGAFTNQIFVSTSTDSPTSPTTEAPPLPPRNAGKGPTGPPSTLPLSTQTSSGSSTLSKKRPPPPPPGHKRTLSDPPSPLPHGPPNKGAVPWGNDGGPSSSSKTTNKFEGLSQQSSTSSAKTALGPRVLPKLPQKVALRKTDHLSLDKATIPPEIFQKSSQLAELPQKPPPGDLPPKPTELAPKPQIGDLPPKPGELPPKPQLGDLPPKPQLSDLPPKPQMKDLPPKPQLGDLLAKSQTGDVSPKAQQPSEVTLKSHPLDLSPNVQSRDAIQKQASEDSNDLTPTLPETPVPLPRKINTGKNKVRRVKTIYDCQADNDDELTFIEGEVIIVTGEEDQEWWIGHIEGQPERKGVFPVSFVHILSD
ADP-ribosylation factor GTPase-activating protein 1, sequence (Q62848 whole entry, the tested form may be a part): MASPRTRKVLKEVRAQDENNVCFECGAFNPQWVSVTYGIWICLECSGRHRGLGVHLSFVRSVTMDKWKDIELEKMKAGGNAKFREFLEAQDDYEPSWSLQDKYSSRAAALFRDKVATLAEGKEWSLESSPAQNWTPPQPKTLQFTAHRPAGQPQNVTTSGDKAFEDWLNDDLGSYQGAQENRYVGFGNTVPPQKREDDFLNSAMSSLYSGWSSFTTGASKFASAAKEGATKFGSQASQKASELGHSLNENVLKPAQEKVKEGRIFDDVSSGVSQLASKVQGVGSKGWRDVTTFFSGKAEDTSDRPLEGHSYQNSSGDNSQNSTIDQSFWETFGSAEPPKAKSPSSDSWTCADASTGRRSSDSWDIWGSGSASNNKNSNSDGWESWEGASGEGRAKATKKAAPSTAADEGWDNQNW
26S proteasome non-ATPase regulatory subunit 14, sequence (O00487 whole entry): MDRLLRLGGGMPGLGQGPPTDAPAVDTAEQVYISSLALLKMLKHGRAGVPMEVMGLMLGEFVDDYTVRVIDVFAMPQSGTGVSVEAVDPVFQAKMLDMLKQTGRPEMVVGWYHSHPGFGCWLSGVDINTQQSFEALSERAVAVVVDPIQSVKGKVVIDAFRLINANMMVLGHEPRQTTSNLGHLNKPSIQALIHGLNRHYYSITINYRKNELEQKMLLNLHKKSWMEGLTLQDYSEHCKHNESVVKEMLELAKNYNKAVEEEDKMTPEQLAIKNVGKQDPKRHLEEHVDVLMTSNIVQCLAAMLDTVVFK
72 kDa type IV collagenase, sequence (P08253 whole entry): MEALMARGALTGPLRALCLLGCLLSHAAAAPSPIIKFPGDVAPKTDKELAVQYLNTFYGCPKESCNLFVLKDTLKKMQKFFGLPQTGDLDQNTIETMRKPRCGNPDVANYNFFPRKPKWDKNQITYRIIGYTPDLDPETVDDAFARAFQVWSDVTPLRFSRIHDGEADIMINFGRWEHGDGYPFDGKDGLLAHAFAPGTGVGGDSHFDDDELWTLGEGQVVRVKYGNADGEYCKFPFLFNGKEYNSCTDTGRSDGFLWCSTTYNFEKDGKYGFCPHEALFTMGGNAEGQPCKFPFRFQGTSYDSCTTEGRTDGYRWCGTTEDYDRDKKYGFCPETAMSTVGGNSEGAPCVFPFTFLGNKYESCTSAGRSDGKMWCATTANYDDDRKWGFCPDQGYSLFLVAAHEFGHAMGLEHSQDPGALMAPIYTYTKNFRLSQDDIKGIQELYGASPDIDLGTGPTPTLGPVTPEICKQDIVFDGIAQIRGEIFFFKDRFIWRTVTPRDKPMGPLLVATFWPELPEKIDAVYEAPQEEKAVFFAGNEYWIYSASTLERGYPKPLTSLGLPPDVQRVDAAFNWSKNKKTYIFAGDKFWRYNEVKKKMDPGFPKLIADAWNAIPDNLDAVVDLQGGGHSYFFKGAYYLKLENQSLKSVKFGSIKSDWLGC

With `Cc1ccc2nc(SCC(=O)N3CCCCCC3)nc(=O)n2c1` the EC50 [1] was > 350 µM (not active), the IC50 [2] was 23.1 µM (inactive) and the IC50 [3] was 30.7 µM (inactive). For the same compound, the EC50 [4] was > 350 µM (not active).

For `Nc1nc(SCc2ccc(Cl)cc2Cl)nc2nc3c(cc12)CCCC3`, the EC50 [5] was 14.4 µM (active), the IC50 [6] was 41.4 µM (active) and the IC50 [7] was 39.2 µM (active). For the same compound, the EC50 [8] was 13.3 µM (active), the IC50 [2] was 23.8 µM (inactive) and the IC50 [3] was 17.7 µM (inactive). For the same compound, the IC50 [9] was > 100 µM (inactive).

In the case of `COc1ccccc1NS(=O)(=O)c1cccc(NC(=O)Nc2ccc(Cl)cc2)c1`, the IC50 [10] is reported as 7.01 µM (active), the EC50 [11] is reported as > 60 µM (not active) and the EC50 [12] is reported as > 20 µM (inactive). The IC50 [13] was 5.53 µM (active), the IC50 [14] was 65.3 µM (inactive) and the IC50 [15] was 39.5 µM (inactive). For the same compound, the IC50 [16] was 5.81 µM (inactive), the EC50 [17] was 1.8 µM (active) and the IC50 [18] was 6.59 µM (active).

In the case of `CCOC(=O)C1CCN(C(=O)c2cc3c(ccc4ccccc43)o2)CC1`, the IC50 [19] is reported as > 80 µM (inactive).
